Laboratory results from patent US20210079015A1, “NOVEL DIHYDROISOXAZOLE COMPOUNDS AND THEIR USE FOR THE TREATMENT OF HEPATITIS B” (Novartis AG, priority 2017, published 2021).

System: HBV
Assay: Anti-HBV assay (inhibition of HBV replication in HepG2.cl42 cells, HBV DNA by qPCR)
Type: cell-based, HBV ayw strain
Details: Hepatitis B virus, 96 h, treated four days, HBV DNA quantified by real time PCR, read-out: HBsAg EC50

`O=C(Nc1cc(F)c(F)c(F)c1)N1CCc2noc(-c3ccc(F)cc3F)c2C1` [Compound 1.1, 3-(2,4-difluorophenyl)-N-(3,4,5-trifluorophenyl)-6,7-dihydroisoxazolo[4,3-c]pyridine-5(4H)-carboxamide] and `O=C(Nc1cc(F)c(F)c(F)c1)N1CCc2onc(-c3ccc(F)cc3F)c2C1` [Compound 7.1, 3-(2,4-difluorophenyl)-N-(3,4,5-trifluorophenyl)-6,7-dihydroisoxazolo[4,5-c]pyridine-5(4H)-carboxamide] fall in the same range of EC50: 100 to 1000 nM for the first, 100 to 1000 nM for the second.

`C[C@H]1Cc2noc(-c3ccccc3F)c2CN1C(=O)Nc1cc(F)c(F)c(F)c1` [Compound 10] and `C[C@@H]1Cc2noc(-c3ccc(F)cc3F)c2CN1C(=O)Nc1cc(F)c(F)c(F)c1` [Compound 3.1-II, (R)-3-(2,4-difluorophenyl)-6-methyl-N-(3,4,5-trifluorophenyl)-6,7-dihydroisoxazolo[4,3-c]pyridine-5(4H)-carboxamide] fall in the same range of EC50: 100 to 1000 nM for the first, 100 to 1000 nM for the second.

Compared with `COc1cccc(-c2onc3c2CN(C(=O)Nc2cc(F)c(F)c(F)c2)[C@@H](C)C3)c1` [Compound 20], `COc1ccc(-c2onc3c2CN(C(=O)Nc2cc(F)c(F)c(F)c2)[C@@H](C)C3)cc1` [Compound 9, (S)-3-(4-methoxyphenyl)-6-methyl-N-(3,4,5-trifluorophenyl)-6,7-dihydroisoxazolo[4,3-c]pyridine-5(4H)-carboxamide] is lower in EC50: 100 to 1000 nM for the first, < 100 nM for the second. The second is the more potent here.

`C[C@H]1Cc2noc(-c3ccccc3)c2CN1C(=O)Nc1cc(F)c(F)c(F)c1` [Compound 15] and `C[C@H]1Cc2noc(-c3ccc(Cl)cc3)c2CN1C(=O)Nc1cc(F)c(F)c(F)c1` [Compound 18] fall in the same range of EC50: 100 to 1000 nM for the first, 100 to 1000 nM for the second.

`C[C@H]1c2c(noc2-c2cn(C)nn2)CCN1C(=O)Nc1cc(F)c(F)c(F)c1` [Compound 38] and `C[C@H]1c2c(noc2C2CCCC2)CCN1C(=O)Nc1cc(F)c(F)c(F)c1` [Compound 44] cannot be ordered by EC50: ≥ 1000 nM for the first, ≥ 1000 nM for the second.

`O=C(Nc1cc(F)c(F)c(F)c1)C1CCc2noc(-c3ccc(F)cc3F)c2C1` (stereo not drawn) [Compound 6.1, 3-(2,4-difluorophenyl)-N-(3,4,5-trifluorophenyl)-4,5,6,7-tetrahydrobenzo[c]isoxazole-5-carboxamide] and `C[C@H]1Cc2noc(-c3ccc(OC(F)F)cc3)c2CN1C(=O)Nc1cc(F)c(F)c(F)c1` [Compound 24] fall in the same range of EC50: 100 to 1000 nM for the first, 100 to 1000 nM for the second.

`C[C@H]1Cc2noc(-c3ccc(OC(F)(F)F)cc3)c2CN1C(=O)Nc1cc(F)c(F)c(F)c1` [Compound 16] and `Cc1nc(-c2onc3c2CN(C(=O)Nc2cc(F)c(F)c(F)c2)[C@@H](C)C3)c(C)o1` [Compound 39] fall in the same range of EC50: 100 to 1000 nM for the first, 100 to 1000 nM for the second.

First: C[C@H]1Cc2noc(N3CCC(CC(=O)O)C3=O)c2CN1C(=O)Nc1cc(F)c(F)c(F)c1 (stereo partly drawn) [Compound 63, 2-(1-((S)-6-methyl-5-((3,4,5-trifluorophenyl)carbamoyl)-4,5,6,7-tetrahydroisoxazolo[4,3-c]pyridin-3-yl)-2-oxopyrrolidin-3-yl)acetic acid]
Second: C[C@H]1Cc2noc(N3CCCC3=O)c2CN1C(=O)Nc1cc(F)c(F)c(F)c1 [Compound 8.1, (S)-6-methyl-3-(2-oxopyrrolidin-1-yl)-N-(3,4,5-trifluorophenyl)-6,7-dihydroisoxazolo[4,3-c]pyridine-5(4H)-carboxamide]
The EC50 of the first is higher: ≥ 1000 nM for the first, < 100 nM for the second.

`C[C@H]1Cc2noc(N3CCCOC3=O)c2CN1C(=O)Nc1cc(F)c(F)c(F)c1` [Compound 48, (S)-6-methyl-3-(2-oxo-1,3-oxazinan-3-yl)-N-(3,4,5-trifluorophenyl)-6,7-dihydroisoxazolo[4,3-c]pyridine-5(4H)-carboxamide] and `C[C@H]1Cc2noc(N3CCOCC3=O)c2CN1C(=O)Nc1cc(F)c(F)c(F)c1` [Compound 49, (S)-6-methyl-3-(3-oxomorpholino)-N-(3,4,5-trifluorophenyl)-6,7-dihydroisoxazolo[4,3-c]pyridine-5(4H)-carboxamide] cannot be ordered by EC50: < 100 nM for the first, < 100 nM for the second.
